Measurements reported in patent US20200008426A1, “ACTIVE COMPOUND COMBINATIONS” (BAYER AKTIENGESELLSCHAFT, priority 2017, published 2020).
Where two headings read alike, the source gives them in different places.

What was measured:
[1] = LogP by HPLC on reversed phase columns (EEC directive 79/831 Annex V.A8); conditions: for LogP [a]: LC-UV, acidic range, 0.1% formic acid in water and acetonitrile
Protocol: Measurement of LogP values was performed according to EEC directive 79/831 Annex V.A8 by HPLC (High Performance Liquid Chromatography) on reversed phase columns with the following methods:
Lambda-max-values were determined using UV-spectra from 200 nm to 400 nm and the peak values of the chromatographic signals.

Alternaria solani = experiment: In vivo preventive test on Alternaria (tomatoes); conditions: Alternaria solani, 72 h, read-out: Efficacy in % found
Protocol: The plants are then placed in an incubation cabinet at approximately 20° C. and a relative atmospheric humidity of 100%.
The test is evaluated 3 days after the inoculation.

Phakopsora pachyrhizi = experiment: In vivo preventive test on Phakopsora (soybeans); conditions: Table C2, 7 days after inoculation
Septoria tritici = experiment: In vivo preventive Septoria tritici test (wheat); conditions: Zymoseptoria tritici, 504 h, 21 days after inoculation
Protocol: After the spray coating has been dried, the plants are sprayed with a spore suspension of Septoria tritici.
The test is evaluated 21 days after the inoculation.

Pyrenophora teres = experiment: In vitro-Test with Pyrenophora teres; format: cell-based

Compound: CC(O)(Cn1cncn1)c1cnc(Oc2ccc(C(F)(F)F)cc2)cc1C(F)(F)F (stereo not drawn) [I.50]
- LogP [a] ([1]; Table 1, formula (I)): 3.11^[a]

Compound: O=C(NCCc1ncc(C(F)(F)F)cc1Cl)c1ccccc1C(F)(F)F [2.005 fluopyram, fluopyram]
- pest or weed control at 5 ppm (Alternaria solani; Table A2, 5 ppm a.i., 3 days after inoculation): 53%
- pest or weed control at 10 ppm (Alternaria solani; Table A2, 10 ppm a.i., 3 days after inoculation): 61%
- pest or weed control at 20 ppm (Alternaria solani; Table A2, 20 ppm a.i., 3 days after inoculation): 84%

Compound: CON=C(C(=O)OC)c1ccccc1CON=C(C)c1cccc(C(F)(F)F)c1 [3.020 trifloxystrobin, trifloxystrobin]
- pest or weed control at 1 ppm (Alternaria solani; Table A2, 1 ppm a.i., 3 days after inoculation): 24%
- pest or weed control at 2 ppm (Alternaria solani; Table A2, 2 ppm a.i., 3 days after inoculation): 42%
- pest or weed control at 4 ppm (Alternaria solani; Table A2, 4 ppm a.i., 3 days after inoculation): 53%

Compound: OC(Cn1cncn1)c1ccc(Oc2ccccc2F)nc1Cl (stereo not drawn) [I.19]
- LogP [a] ([1]; Table 1, formula (I)): 2.08^[a]

Compound: Cn1cc(C(=O)Nc2ccc(F)cc2-c2ccc(Cl)c(Cl)c2)c(C(F)F)n1 [2.002 bixafen, bixafen]
- Efficacy in % found (Phakopsora pachyrhizi; 2.5 ppm a.i.): 0%
- Efficacy in % found (Phakopsora pachyrhizi; 5 ppm a.i.): 0%
- Efficacy in % found (Phakopsora pachyrhizi; 10 ppm a.i.): 15%

Compound: OC(Cn1cncn1)c1ccc(Oc2ccc(Cl)cc2F)nc1C(F)(F)F (stereo not drawn) [I.70]
- LogP [a] ([1]; Table 1, formula (I)): 2.78^[a]

Compound: Cc1ccc(Oc2ccc(C(C)(O)Cn3cncn3)c(Cl)n2)cc1Cl (stereo not drawn) [I.29]
- LogP [a] ([1]; Table 1, formula (I)): 3.00^[a]

Compound: CC(=O)c1ccc(Oc2ccc(C(F)(F)F)cc2)nc1C(F)(F)F [V.17]
- LogP [a] ([1]; Table 2, formula (V)): 3.96^[a]

Compound: CC(=O)c1ccc(Oc2ccc(S(F)(F)(F)(F)F)cc2)nc1C(F)(F)F [V.16]
- LogP [a] ([1]; Table 2, formula (V)): 4.09^[a]

Compound: CC(O)(Cn1cncn1)c1cnc(Oc2ccc(Br)cc2)cc1C(F)F (stereo not drawn) [I.82]
- LogP [a] ([1]; Table 1, formula (I)): 2.78^[a]

Compound: OC(Cn1cncn1)c1cnc(Oc2ccc(OC(F)(F)F)cc2)cc1C(F)(F)F (stereo not drawn) [I.43]
- LogP [a] ([1]; Table 1, formula (I)): 3.00^[a]

Compound: CC(=O)c1ccc(Oc2ccc(C(F)F)cc2)nc1C(F)(F)F [V.32]
- LogP [a] ([1]; Table 2, formula (V)): 3.26^[a]

Compound: CC1CC(C)(C)c2cccc(NC(=O)c3cn(C)nc3C(F)F)c21 (stereo not drawn) [Example 2.027, 3-(difluoromethyl)-1-methyl-N-(1,1,3-trimethyl-2,3-dihydro-1H-inden-4-yl)-1H-pyrazole-4-carboxamide]
- pest or weed control at 1 ppm (Alternaria solani): 0%
- pest or weed control at 2 ppm (Alternaria solani): 3%
- pest or weed control at 4 ppm (Alternaria solani): 11%
- pest or weed control at 62.5 ppm (Septoria tritici; read-out: Efficacy in % found, 62.5 ppm a.i.): 25%
- pest or weed control at 125 ppm (Septoria tritici; read-out: Efficacy in % found, 125 ppm a.i.): 63%
- Efficacy % (Pyrenophora teres; 4 ppm): 43%
- Efficacy % (Pyrenophora teres; 20 ppm): 62%
- Efficacy in % found (Phakopsora pachyrhizi; 1 ppm a.i.): 50%
- Efficacy in % found (Phakopsora pachyrhizi; 2 ppm a.i.): 95%
- Efficacy in % found (Phakopsora pachyrhizi; 4 ppm a.i.): 100%

Compound: CC(O)(Cn1cncn1)c1cnc(Oc2ccc(C(F)F)cc2)cc1C(F)(F)F (stereo not drawn) [I.56]
- LogP [a] ([1]; Table 1, formula (I)): 2.73^[a]

Compound: CC(O)(Cn1cncn1)c1ccc(Oc2ccc(F)cc2)nc1Oc1ccc(F)cc1 (stereo not drawn) [I.77]
- LogP [a] ([1]; Table 1, formula (I)): 3.13^[a]

Compound: CC(O)(Cn1cncn1)c1cnc(Oc2ccc(Cl)cc2)cc1C(F)F (stereo not drawn) [I.64]
- LogP [a] ([1]; Table 1, formula (I)): 2.68^[a]

Compound: CC(O)(Cn1cncn1)c1ccc(Oc2ccc(Cl)cc2)nc1C(F)(F)F (racemic) [I.96]
- LogP [a] ([1]; Table 1, formula (I)): 2.68^[a]

Compound: CC(O)(Cn1cncn1)c1ccc(Oc2ccc(Cl)c(Cl)c2)nc1Cl (stereo not drawn) [I.32]
- LogP [a] ([1]; Table 1, formula (I)): 3.09^[a]

Compound: OC(Cn1cncn1)(c1ccc(Oc2ccc(Br)cc2)nc1C(F)(F)F)C(F)(F)F (stereo not drawn) [I.85]
- LogP [a] ([1]; Table 1, formula (I)): 3.48^[a]

Compound: COc1ccc(Oc2ccc(C(C)=O)c(Cl)n2)c(Cl)c1 [V.29]
- LogP [a] ([1]; Table 2, formula (V)): 3.44^[a]

Compound: OC(Cn1cncn1)(c1ccc(Oc2ccc(Br)cc2)nc1C(F)(F)F)C1CC1 (stereo not drawn) [I.81, 1-[6-(4-bromophenoxy)-2-(trifluoromethyl)pyridin-3-yl]-1-cyclopropyl-2-(1H-1,2,4-triazol-1-yl)ethanol]
- chromatographic logP ([1]; reversed-phase HPLC column): 3.7

Compound: OC(Cn1cncn1)c1ccc(Oc2ccc(C(F)F)cc2)nc1Cl (stereo not drawn) [I.38]
- LogP [a] ([1]; Table 1, formula (I)): 2.17^[a]

Compound: CC(O)(Cn1cncn1)c1cnc(Oc2ccc(Cl)cc2F)cc1C(F)(F)F (stereo not drawn) [I.58]
- LogP [a] ([1]; Table 1, formula (I)): 3.02^[a]

Compound: CC(O)(Cn1cncn1)c1ccc(Oc2ccc(C(F)F)cc2)nc1Cl (stereo not drawn) [I.39]
- LogP [a] ([1]; Table 1, formula (I)): 2.41^[a]

Compound: OC(Cn1cncn1)c1cnc(Oc2ccc(C(F)(F)F)cc2)cc1C(F)(F)F (single isomer, unassigned) [I.72]
- LogP [a] ([1]; Table 1, formula (I)): 2.86^[a]

Compound: COc1ccc(Oc2ccc(C(O)Cn3cncn3)c(Cl)n2)c(Cl)c1 (stereo not drawn) [I.30]
- LogP [a] ([1]; Table 1, formula (I)): 2.32^[a]

Compound: O=C(c1ccc(Oc2ccc(S(F)(F)(F)(F)F)cc2)nc1C(F)(F)F)C1CC1 [V.43]
- LogP [a] ([1]; Table 2, formula (V)): 4.67^[a]
